From US20180338980A1, “AROMATIC SULFONAMIDE DERIVATIVES” (BAYER PHARMA AKTIENGESELLSCHAFT, priority 2015, published 2018)

Target: T1, P2X4 (Homo sapiens, UniProt Q99571)
T1 sequence (Q99571 1-388): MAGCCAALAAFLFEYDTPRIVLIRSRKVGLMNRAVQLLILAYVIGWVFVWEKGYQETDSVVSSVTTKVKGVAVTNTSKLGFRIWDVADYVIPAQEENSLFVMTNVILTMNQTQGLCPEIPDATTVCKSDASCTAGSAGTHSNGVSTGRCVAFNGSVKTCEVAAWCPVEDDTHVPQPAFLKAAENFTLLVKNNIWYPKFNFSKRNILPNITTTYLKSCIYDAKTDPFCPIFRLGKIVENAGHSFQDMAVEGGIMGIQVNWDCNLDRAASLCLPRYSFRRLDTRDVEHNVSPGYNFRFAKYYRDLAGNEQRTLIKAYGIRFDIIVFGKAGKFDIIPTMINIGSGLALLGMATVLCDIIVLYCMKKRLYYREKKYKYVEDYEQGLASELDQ
Assay: Assay B: human P2X4 receptor cell line, mitochondrial photina luminescence (agonist Bz-ATP at EC50)
Assay type: cell-based
Design: host or cells: HEK 293 (recombinant, constitutively expressing; with mitochondrial photina in Assay B)
Conditions: HEK human P2X4 cell line, photina luminescence, agonist Bz-ATP at EC50, average; for Emax: read-out: human P2X4 Assay B avg Efficacy
Description: The identification of agonists and antagonists of the P2X4 receptor from humans and […] also the quantification of the activity of the compounds of the invention was performed by use of recombinant cell lines. […] The test cell lines constitutively express the mouse or human P2X4 receptors. Stimulation of the receptors with an agonist leads to a conformational change of P2X4 and influx of extracellular calcium ions through the ion channel. The cytoplasmatic calcium transient is detected via the calcium sensitive dye Fluo8 for the mouse P2×4 cell line or in case of the human P2×4 cell line a stably expressed calcium-sensitive photoprotein, mitochondrial photina, which, after reconstitution with the cofactor coelenterazine, emits light in dependence of calcium binding [Bovolenta S, Foti M, Lohmer S, Corazza S., J Biomol Screen. […] The strength of Fluo8 fluorescence signal or photina luminescence signal corresponds to the level of receptor activation. An inhibitor would decrease the signal depending on its potency and concentration.
The resulting light signal is measured immediately in the luminometer.

Row | SMILES | IC50 [nM] | Emax [%]
1 | NS(=O)(=O)c1cc(NC(=O)Cc2ccccc2Cl)ccc1OCc1ccncn1 [Example 153, 2-(2-Chlorophenyl)-N-[4-(pyrimidin-4-ylmethoxy)-3-sulfamoylphenyl]acetamide] | 327 | 93
2 | NS(=O)(=O)c1cc(NC(=O)Cc2ccccc2Cl)ccc1OCc1ncccn1 [Example 154, 2-(2-Chlorophenyl)-N-[4-(pyrimidin-2-ylmethoxy)-3-sulfamoylphenyl]acetamide] | 252 | 77
3 | NS(=O)(=O)c1cc(NC(=O)Cc2ccccc2Cl)ccc1OCC1COC1 [Example 159, 2-(2-Chlorophenyl)-N-[4-(oxetan-3-ylmethoxy)-3-sulfamoylphenyl]acetamide] | 1180 | 91
4 | NS(=O)(=O)c1cc(NC(=O)Cc2ccccc2Cl)ccc1OCC1CCCO1 (centres unmarked) [Example 161, 2-(2-Chlorophenyl)-N-[3-sulfamoyl-4-(tetrahydrofuran-2-ylmethoxy)phenyl]acetamide] | 832 | 74
5 | NS(=O)(=O)c1cc(NC(=O)Cc2ccccc2Cl)ccc1OCC1CCOC1 (centres unmarked) [Example 162, 2-(2-Chlorophenyl)-N-[3-sulfamoyl-4-(tetrahydrofuran-3-ylmethoxy)phenyl]acetamide] | 335 | 66
6 | NS(=O)(=O)c1cc(NC(=O)Cc2ccccc2)cc(F)c1Oc1cccc(Cl)c1 [Example 170, N-[4-(3-Chlorophenoxy)-3-fluoro-5-sulfamoylphenyl]-2-phenylacetamide] | > 16000 | 36
7 | Cc1ccccc1CC(=O)Nc1cc(F)c(Oc2cccc(Cl)c2)c(S(N)(=O)=O)c1 [Example 171, N-[4-(3-Chlorophenoxy)-3-fluoro-5-sulfamoylphenyl]-2-(2-methylphenyl)acetamide] | 4910 | 65
8 | Cc1cccc(CC(=O)Nc2cc(F)c(Oc3cccc(Cl)c3)c(S(N)(=O)=O)c2)c1 [Example 172, N-[4-(3-Chlorophenoxy)-3-fluoro-5-sulfamoylphenyl]-2-(3-methylphenyl)acetamide] | 3240 | 63
9 | NS(=O)(=O)c1cc(NC(=O)Cc2cccnc2)ccc1Oc1cccc(Cl)c1 [Example 181, N-[4-(3-Chlorophenoxy)-3-sulfamoylphenyl]-2-(pyridin-3-yl)acetamide] | 2240 | 63
10 | CC(C(=O)Nc1ccc(Oc2cccc(Cl)c2)c(S(N)(=O)=O)c1)c1ccccc1 (centres unmarked) [Example 184, N-[4-(3-Chlorophenoxy)-3-sulfamoylphenyl]-2-phenylpropanamide] | – | 53
11 | NS(=O)(=O)c1cc(NC(=O)Cc2cccc(Cl)c2)ccc1Oc1cccc(Cl)c1 [Example 186, N-[4-(3-Chlorophenoxy)-3-sulfamoylphenyl]-2-(3-chlorophenyl)acetamide] | 462 | 97
12 | NS(=O)(=O)c1cc(NC(=O)Cc2ccncc2)ccc1Oc1cccc(Cl)c1 [Example 188, N-[4-(3-Chlorophenoxy)-3-sulfamoylphenyl]-2-(pyridin-4-yl)acetamide] | 2560 | 71
13 | Cc1cccc(CC(=O)Nc2ccc(Oc3cccc(Cl)c3)c(S(N)(=O)=O)c2)n1 [Example 189, N-[4-(3-Chlorophenoxy)-3-sulfamoylphenyl]-2-(6-methylpyridin-2-yl)acetamide] | 429 | 54
14 | COc1ccc(CC(=O)Nc2ccc(Oc3cccc(Cl)c3)c(S(N)(=O)=O)c2)cc1 [Example 190, N-[4-(3-Chlorophenoxy)-3-sulfamoylphenyl]-2-(4-methoxyphenyl)acetamide] | 171 | 65
15 | Cc1ccc(CC(=O)Nc2ccc(Oc3cccc(Cl)c3)c(S(N)(=O)=O)c2)nc1 [Example 193, N-[4-(3-Chlorophenoxy)-3-sulfamoylphenyl]-2-(5-methylpyridin-2-yl)acetamide] | 1060 | 79
16 | C[C@H](C(=O)Nc1ccc(Oc2cccc(Cl)c2)c(S(N)(=O)=O)c1)c1ccccc1 [Example 194, (2S)—N-[4-(3-chlorophenoxy)-3-sulfamoylphenyl]-2-phenylpropanamide] | – | 65
17 | C[C@@H](C(=O)Nc1ccc(Oc2cccc(Cl)c2)c(S(N)(=O)=O)c1)c1ccccc1 [Example 195, (2R)—N-[4-(3-Chlorophenoxy)-3-sulfamoylphenyl]-2-phenylpropanamide] | – | 64

Row | SMILES | IC50 [nM] | Emax [%]
18 | COCCN(C)C(=O)c1ccccc1CC(=O)Nc1ccc(Oc2cccc(Cl)c2)c(S(N)(=O)=O)c1 [Example 197, 2-(2-{[4-(3-Chlorophenoxy)-3-sulfamoylphenyl]amino}-2-oxoethyl)-N-(2-methoxyethyl)-N-methylbenzamide] | 4120 | 68
19 | CN(C)C(=O)c1ccccc1CC(=O)Nc1ccc(Oc2cccc(Cl)c2)c(S(N)(=O)=O)c1 [Example 198, 2-(2-{[4-(3-Chlorophenoxy)-3-sulfamoylphenyl]amino}-2-oxoethyl)-N,N-dimethylbenzamide] | 4740 | 60
20 | NS(=O)(=O)c1cc(NC(=O)Cc2ccccc2)ccc1OC1CCCCC1 [Example 199, N-[4-(Cyclohexyloxy)-3-sulfamoylphenyl]-2-phenylacetamide] | 1960 | 70
21 | COCCNC(=O)c1cccc(CC(=O)Nc2ccc(Oc3cccc(Cl)c3)c(S(N)(=O)=O)c2)c1 [Example 201, 3-(2-{[4-(3-Chlorophenoxy)-3-sulfamoylphenyl]amino}-2-oxoethyl)-N-(2-methoxyethyl)benzamide] | 3300 | 73
22 | CNC(=O)c1cccc(CC(=O)Nc2ccc(Oc3cccc(Cl)c3)c(S(N)(=O)=O)c2)c1 [Example 203, 3-(2-{[4-(3-Chlorophenoxy)-3-sulfamoylphenyl]amino}-2-oxoethyl)-N-methylbenzamide] | 1350 | 69
23 | NS(=O)(=O)c1cc(NC(=O)Cc2ccccc2)ccc1OC1CCC1 [Example 204, N-[4-(Cyclobutyloxy)-3-sulfamoylphenyl]-2-phenylacetamide] | 4040 | 60
24 | NS(=O)(=O)c1cc(NC(=O)Cc2ccccc2Cl)ccc1OC1CCC1 [Example 205, 2-(2-Chlorophenyl)-N-[4-(cyclobutyloxy)-3-sulfamoylphenyl]acetamide] | 396 | 74
25 | NS(=O)(=O)c1cc(NC(=O)Cc2ccccc2)ccc1OC1CCOCC1 [Example 206, 2-Phenyl-N-[3-sulfamoyl-4-(tetrahydro-2H-pyran-4-yloxy)phenyl]acetamide] | 10800 | 88
26 | NS(=O)(=O)c1cc(NC(=O)Cc2ccc(Cl)cn2)ccc1Oc1cccc(Cl)c1 [Example 209, N-[4-(3-Chlorophenoxy)-3-sulfamoylphenyl]-2-(5-chloropyridin-2-yl)acetamide] | 742 | 64
27 | COCCOc1cccc(CC(=O)Nc2ccc(Oc3cccc(Cl)c3)c(S(N)(=O)=O)c2)c1 [Example 210, N-[4-(3-Chlorophenoxy)-3-sulfamoylphenyl]-2-[3-(2-methoxyethoxy)phenyl]acetamide] | 491 | 71
28 | COCCOc1ccccc1CC(=O)Nc1ccc(Oc2cccc(Cl)c2)c(S(N)(=O)=O)c1 [Example 211, N-[4-(3-Chlorophenoxy)-3-sulfamoylphenyl]-2-[2-(2-methoxyethoxy)phenyl]acetamide] | 404 | 102
29 | NS(=O)(=O)c1cc(NC(=O)Cc2cccc(OCCO)c2)ccc1Oc1cccc(Cl)c1 [Example 212, N-[4-(3-Chlorophenoxy)-3-sulfamoylphenyl]-2-[3-(2-hydroxyethoxy)phenyl]acetamide] | 406 | 85
30 | NS(=O)(=O)c1cc(NC(=O)Cc2ccccc2OCCO)ccc1Oc1cccc(Cl)c1 [Example 213, N-[4-(3-Chlorophenoxy)-3-sulfamoylphenyl]-2-[2-(2-hydroxyethoxy)phenyl]acetamide] | 818 | 61
31 | NS(=O)(=O)c1cc(NC(=O)Cc2ccccc2)ccc1OC1COC1 [Example 215, N-[4-(Oxetan-3-yloxy)-3-sulfamoylphenyl]-2-phenylacetamide] | 1510 | 68
32 | NS(=O)(=O)c1cc(NC(=O)Cc2ccccc2Cl)ccc1OC1COC1 [Example 216, 2-(2-Chlorophenyl)-N-[4-(oxetan-3-yloxy)-3-sulfamoylphenyl]acetamide] | 3350 | 45
33 | NS(=O)(=O)c1cc(NC(=O)Cc2ccccc2)ccc1OC1CCCC1 [Example 217, N-[4-(Cyclopentyloxy)-3-sulfamoylphenyl]-2-phenylacetamide] | 4030 | 67
34 | NS(=O)(=O)c1cc(NC(=O)Cc2ccccc2Cl)ccc1OC1CCCC1 [Example 218, 2-(2-Chlorophenyl)-N-[4-(cyclopentyloxy)-3-sulfamoylphenyl]acetamide] | 248 | 80
